Source: ChEMBL document CHEMBL4507275, “Data for DCP probe BI-2545” (2021)
Calls of active or inactive are those of the source. The calls are words filed in the database; no cut-off is given here.

Legend:
[1] = target: 5-hydroxytryptamine receptor 2B (Homo sapiens) (UniProt P41595); test: 5HT2B/H AG Cerep selectivity data (BI); details: filed as agonist, Compound concentration 10.0 uM
[2] = target: Tyrosine-protein kinase Lck (Homo sapiens) (UniProt P06239); test: LCK_CE Cerep selectivity data (BI); details: Compound concentration 10.0 uM
[3] = target: Adenosine receptor A2a (Homo sapiens) (UniProt P29274); test: A2A/H Cerep selectivity data (BI); details: filed as antagonist, Compound concentration 10.0 uM
[4] = target: T1, 5-hydroxytryptamine receptor 2A (Homo sapiens, UniProt P28223); test: GPCRScan assay: inhibition of 5-HT2A; parameters: radioligand conc. used [nm] 1.2 – 2.4, parental cells HEKT
T1 sequence (P28223 whole entry): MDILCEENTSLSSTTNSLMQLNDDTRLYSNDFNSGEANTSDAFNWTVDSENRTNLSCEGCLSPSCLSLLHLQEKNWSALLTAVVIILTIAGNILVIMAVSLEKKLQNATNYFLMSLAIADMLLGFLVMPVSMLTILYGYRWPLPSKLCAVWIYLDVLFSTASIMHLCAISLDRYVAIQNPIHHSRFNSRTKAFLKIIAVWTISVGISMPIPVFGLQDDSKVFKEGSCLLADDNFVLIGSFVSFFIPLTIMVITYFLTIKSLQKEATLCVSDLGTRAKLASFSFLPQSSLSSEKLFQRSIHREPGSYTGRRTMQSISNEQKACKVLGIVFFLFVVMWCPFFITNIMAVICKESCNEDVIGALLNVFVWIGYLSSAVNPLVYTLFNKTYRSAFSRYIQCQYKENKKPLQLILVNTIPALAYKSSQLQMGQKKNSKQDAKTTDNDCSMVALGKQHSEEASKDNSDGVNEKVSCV

[5] = target: cGMP-inhibited 3',5'-cyclic phosphodiesterase 3A (Homo sapiens) (UniProt Q14432); test: PDE3A Cerep selectivity data (BI); details: Compound concentration 10.0 uM
hERG (KCNH2) = hERG (KCNH2) (Homo sapiens, UniProt Q12809); test: HERG_DOFETILIDE Cerep selectivity data (BI); parameters: mode of action inhibitor; details: probe [3H] Dofetilide, compound concentration 10 uM, read-out: % Ctrl
[6] = target: D(2) dopamine receptor (Homo sapiens) (UniProt P14416); details: Compound concentration 10.0 uM
D(2) dopamine receptor (Homo sapiens), sequence (P14416 whole entry): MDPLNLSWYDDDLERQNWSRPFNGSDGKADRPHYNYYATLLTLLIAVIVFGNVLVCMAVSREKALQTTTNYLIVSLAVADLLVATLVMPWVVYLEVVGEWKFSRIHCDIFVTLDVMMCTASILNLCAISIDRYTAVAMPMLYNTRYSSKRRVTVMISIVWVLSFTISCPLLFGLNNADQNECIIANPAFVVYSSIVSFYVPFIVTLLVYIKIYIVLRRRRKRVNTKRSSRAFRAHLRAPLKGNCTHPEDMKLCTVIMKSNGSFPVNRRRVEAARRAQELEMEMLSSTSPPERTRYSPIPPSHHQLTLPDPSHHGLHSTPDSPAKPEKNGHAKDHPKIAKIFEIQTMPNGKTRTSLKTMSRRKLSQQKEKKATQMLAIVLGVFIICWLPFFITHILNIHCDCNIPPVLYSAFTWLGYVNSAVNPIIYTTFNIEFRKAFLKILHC

[7] = target: Endothelin-1 receptor (Homo sapiens) (UniProt P25101); test: ETA/H Cerep selectivity data (BI); details: Compound concentration 10.0 uM
[8] = target: D(1A) dopamine receptor (Homo sapiens) (UniProt P21728); test: D1/H Cerep selectivity data (BI); details: filed as antagonist, Compound concentration 10.0 uM
[9] = target: Muscarinic acetylcholine receptor M3 (Homo sapiens) (UniProt P20309); test: M3/H Cerep selectivity data (BI); details: Compound concentration 10.0 uM
[10] = target: Sodium-dependent noradrenaline transporter (Homo sapiens) (UniProt P23975); test: NEUP/H Cerep selectivity data (BI); details: Compound concentration 10.0 uM
[11] = target: Serine/threonine-protein kinase SIK3 (Homo sapiens) (UniProt Q9Y2K2); details: Compound concentration 1000.0 nM
Serine/threonine-protein kinase SIK3 (Homo sapiens), sequence (Q9Y2K2 whole entry, looked up): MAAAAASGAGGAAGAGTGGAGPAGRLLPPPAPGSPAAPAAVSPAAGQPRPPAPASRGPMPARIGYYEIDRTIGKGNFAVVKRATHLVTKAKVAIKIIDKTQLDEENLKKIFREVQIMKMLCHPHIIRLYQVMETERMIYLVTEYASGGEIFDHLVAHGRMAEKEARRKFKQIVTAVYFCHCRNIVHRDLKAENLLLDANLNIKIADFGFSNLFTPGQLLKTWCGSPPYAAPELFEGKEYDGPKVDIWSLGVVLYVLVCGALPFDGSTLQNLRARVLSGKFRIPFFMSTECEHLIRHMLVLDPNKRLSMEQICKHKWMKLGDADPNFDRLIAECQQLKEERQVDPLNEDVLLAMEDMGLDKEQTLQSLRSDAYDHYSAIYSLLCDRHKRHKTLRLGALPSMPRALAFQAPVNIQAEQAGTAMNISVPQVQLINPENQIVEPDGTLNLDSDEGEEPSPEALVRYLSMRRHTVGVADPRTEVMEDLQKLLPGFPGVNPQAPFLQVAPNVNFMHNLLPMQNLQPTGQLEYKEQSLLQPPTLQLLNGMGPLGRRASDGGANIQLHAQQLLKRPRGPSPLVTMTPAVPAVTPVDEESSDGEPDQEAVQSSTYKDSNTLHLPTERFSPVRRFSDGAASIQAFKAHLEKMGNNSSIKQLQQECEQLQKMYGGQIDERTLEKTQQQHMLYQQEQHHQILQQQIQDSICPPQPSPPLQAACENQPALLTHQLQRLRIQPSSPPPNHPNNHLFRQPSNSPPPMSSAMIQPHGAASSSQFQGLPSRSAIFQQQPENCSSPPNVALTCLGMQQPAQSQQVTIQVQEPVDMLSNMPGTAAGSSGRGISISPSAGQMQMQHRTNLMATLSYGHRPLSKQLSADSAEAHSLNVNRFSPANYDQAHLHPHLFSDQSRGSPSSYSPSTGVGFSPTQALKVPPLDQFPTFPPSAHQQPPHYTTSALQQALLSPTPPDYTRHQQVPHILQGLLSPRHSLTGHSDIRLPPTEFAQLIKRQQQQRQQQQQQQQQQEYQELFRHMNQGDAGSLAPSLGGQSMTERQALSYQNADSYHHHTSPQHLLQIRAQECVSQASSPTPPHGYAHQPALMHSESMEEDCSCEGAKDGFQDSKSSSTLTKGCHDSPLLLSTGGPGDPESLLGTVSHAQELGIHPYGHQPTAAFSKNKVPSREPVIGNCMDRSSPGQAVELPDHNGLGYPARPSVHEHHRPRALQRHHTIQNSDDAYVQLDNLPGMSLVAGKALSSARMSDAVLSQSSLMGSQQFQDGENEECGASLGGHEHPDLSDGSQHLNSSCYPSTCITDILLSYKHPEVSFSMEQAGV

[12] = target: Androgen receptor (Homo sapiens) (UniProt P10275); test: ANDROGEN/H Cerep selectivity data (BI); details: Compound concentration 10.0 uM
[13] = target: Muscarinic acetylcholine receptor M1 (Homo sapiens) (UniProt P11229); test: M1/H Cerep selectivity data (BI); details: Compound concentration 10.0 uM
[14] = target: Serine/threonine-protein kinase SIK2 (Homo sapiens) (UniProt Q9H0K1); details: Compound concentration 1000.0 nM
Serine/threonine-protein kinase SIK2 (Homo sapiens), sequence (Q9H0K1 whole entry, looked up): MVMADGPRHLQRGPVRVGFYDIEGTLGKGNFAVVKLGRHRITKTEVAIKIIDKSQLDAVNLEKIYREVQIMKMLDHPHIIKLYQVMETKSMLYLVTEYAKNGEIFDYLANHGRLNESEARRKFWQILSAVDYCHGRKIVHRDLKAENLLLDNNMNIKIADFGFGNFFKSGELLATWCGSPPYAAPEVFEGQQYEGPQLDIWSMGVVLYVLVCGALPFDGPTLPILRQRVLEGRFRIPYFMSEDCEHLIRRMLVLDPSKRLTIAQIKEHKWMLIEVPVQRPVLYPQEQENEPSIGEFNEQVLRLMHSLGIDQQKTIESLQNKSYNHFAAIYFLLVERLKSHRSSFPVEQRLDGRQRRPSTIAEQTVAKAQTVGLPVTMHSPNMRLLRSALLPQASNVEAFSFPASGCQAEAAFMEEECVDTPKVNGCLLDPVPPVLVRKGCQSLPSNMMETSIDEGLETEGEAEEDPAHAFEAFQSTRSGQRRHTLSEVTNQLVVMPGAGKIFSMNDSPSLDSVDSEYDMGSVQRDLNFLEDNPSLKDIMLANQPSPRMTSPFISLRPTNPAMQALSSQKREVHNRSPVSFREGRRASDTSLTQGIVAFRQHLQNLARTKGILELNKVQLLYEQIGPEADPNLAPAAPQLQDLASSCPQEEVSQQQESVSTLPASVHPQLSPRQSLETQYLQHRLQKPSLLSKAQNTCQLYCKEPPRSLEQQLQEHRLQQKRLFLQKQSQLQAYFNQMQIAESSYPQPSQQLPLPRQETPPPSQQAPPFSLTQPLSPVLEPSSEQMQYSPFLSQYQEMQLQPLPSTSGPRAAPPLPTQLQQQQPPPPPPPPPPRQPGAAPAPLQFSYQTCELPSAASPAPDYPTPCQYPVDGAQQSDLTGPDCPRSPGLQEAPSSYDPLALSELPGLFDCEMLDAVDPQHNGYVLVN

[15] = target: D(4) dopamine receptor (Homo sapiens) (UniProt P21917); details: Compound concentration 10.0 uM
D(4) dopamine receptor (Homo sapiens), sequence (P21917 whole entry): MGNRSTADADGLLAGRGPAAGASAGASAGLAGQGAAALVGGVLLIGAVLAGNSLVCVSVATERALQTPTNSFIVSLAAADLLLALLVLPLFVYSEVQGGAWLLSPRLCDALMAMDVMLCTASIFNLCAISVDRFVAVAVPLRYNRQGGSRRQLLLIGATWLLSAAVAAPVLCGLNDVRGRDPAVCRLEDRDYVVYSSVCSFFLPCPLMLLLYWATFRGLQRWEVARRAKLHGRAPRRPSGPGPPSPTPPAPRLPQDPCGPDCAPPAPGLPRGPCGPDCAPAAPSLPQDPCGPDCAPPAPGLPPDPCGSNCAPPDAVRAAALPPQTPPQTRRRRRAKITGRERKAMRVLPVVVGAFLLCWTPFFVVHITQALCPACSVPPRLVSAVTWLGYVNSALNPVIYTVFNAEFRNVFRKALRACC

[16] = target: Ephrin type-B receptor 6 (Homo sapiens) (UniProt O15197); details: Compound concentration 1000.0 nM
Ephrin type-B receptor 6 (Homo sapiens), sequence (O15197 whole entry): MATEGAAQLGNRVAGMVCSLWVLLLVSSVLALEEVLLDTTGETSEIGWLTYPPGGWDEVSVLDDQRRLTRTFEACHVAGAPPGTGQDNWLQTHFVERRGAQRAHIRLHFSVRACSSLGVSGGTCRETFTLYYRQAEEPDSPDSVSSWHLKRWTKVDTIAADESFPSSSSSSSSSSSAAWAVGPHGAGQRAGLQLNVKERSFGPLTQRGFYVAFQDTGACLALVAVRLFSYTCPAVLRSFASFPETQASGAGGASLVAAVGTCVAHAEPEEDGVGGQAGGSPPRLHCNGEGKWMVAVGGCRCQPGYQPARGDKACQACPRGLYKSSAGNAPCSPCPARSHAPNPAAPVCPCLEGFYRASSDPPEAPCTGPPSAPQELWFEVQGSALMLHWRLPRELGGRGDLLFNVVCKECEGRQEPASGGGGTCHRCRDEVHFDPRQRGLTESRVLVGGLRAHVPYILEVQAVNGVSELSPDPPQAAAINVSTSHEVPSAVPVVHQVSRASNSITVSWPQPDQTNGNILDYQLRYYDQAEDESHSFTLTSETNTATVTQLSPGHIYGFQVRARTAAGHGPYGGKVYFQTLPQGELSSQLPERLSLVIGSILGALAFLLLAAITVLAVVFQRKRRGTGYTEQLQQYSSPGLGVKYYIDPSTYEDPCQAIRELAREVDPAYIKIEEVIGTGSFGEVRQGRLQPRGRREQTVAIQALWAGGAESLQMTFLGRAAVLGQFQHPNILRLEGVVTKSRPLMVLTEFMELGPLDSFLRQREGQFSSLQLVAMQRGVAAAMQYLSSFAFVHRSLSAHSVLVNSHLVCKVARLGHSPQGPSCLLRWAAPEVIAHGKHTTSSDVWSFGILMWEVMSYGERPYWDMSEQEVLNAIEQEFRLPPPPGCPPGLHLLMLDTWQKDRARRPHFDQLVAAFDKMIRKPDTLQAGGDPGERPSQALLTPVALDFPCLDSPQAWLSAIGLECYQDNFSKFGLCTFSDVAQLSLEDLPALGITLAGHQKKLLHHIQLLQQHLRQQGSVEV

[17] = target: T2, Muscarinic acetylcholine receptor M2 (Homo sapiens) (UniProt P08172); test: M2/H Cerep selectivity data (BI); details: filed as antagonist, Compound concentration 10.0 uM
T2 sequence (whole entry): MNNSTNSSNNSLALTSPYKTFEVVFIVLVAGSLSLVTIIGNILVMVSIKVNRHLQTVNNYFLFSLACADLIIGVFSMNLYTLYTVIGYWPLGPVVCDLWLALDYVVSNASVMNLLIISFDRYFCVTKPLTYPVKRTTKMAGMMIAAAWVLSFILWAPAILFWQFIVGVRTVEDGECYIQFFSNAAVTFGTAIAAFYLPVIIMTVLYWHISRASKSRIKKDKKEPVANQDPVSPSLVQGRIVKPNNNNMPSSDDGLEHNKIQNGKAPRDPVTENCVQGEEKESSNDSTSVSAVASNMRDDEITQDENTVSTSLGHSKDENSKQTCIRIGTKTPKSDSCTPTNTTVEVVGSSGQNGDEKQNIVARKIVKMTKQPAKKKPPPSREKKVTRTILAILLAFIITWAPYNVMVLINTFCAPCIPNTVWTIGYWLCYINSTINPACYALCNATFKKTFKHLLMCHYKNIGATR

[18] = target: Prostaglandin G/H synthase 1 (Homo sapiens) (UniProt P23219); test: COX-1 Cerep selectivity data (BI); details: Compound concentration 10.0 uM
[19] = target: Serine/threonine-protein kinase pim-2 (Homo sapiens) (UniProt Q9P1W9); details: Compound concentration 1000.0 nM
Serine/threonine-protein kinase pim-2 (Homo sapiens), sequence (Q9P1W9 whole entry, looked up): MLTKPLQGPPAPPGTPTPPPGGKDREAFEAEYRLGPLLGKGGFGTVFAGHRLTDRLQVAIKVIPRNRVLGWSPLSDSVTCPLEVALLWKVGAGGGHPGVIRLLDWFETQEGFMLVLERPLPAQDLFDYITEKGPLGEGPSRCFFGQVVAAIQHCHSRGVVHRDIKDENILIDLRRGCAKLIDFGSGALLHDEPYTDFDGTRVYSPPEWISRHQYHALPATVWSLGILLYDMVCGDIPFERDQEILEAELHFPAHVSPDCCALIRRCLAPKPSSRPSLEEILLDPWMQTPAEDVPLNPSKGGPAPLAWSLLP

[20] = target: Mu-type opioid receptor (Homo sapiens) (UniProt P35372); test: MU/H Cerep selectivity data (BI); details: Compound concentration 10.0 uM
[21] = target: Glutamate receptor ionotropic, NMDA 2A (Rattus norvegicus) (UniProt Q00959); test: NMDA/R Cerep selectivity data (BI); details: Compound concentration 10.0 uM
[22] = target: T3, Alpha-2A adrenergic receptor (Homo sapiens) (UniProt P08913); test: ALPHA2A/HU Cerep selectivity data (BI); details: Compound concentration 10.0 uM
T3 sequence (whole entry): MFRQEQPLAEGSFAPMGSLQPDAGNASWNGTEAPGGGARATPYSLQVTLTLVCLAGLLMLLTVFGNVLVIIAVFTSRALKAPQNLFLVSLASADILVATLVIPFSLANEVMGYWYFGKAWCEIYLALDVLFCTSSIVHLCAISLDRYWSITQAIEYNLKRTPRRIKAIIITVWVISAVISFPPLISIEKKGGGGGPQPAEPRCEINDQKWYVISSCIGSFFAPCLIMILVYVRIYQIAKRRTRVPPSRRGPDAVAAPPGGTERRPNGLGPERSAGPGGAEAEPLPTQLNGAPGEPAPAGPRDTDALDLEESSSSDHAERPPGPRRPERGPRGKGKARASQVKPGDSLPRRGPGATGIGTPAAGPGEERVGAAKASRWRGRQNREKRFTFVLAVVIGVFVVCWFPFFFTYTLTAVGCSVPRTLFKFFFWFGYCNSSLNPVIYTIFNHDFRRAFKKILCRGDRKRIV

[23] = target: Angiotensin-converting enzyme (Homo sapiens) (UniProt P12821); test: ACE(HU_AMTCH400) Cerep selectivity data (BI); details: Compound concentration 10.0 uM
[24] = target: D(2) dopamine receptor (Homo sapiens) (UniProt P14416); test: D2SH_AGON Cerep selectivity data (BI); details: filed as agonist, Compound concentration 10.0 uM
[25] = target: Calcium/calmodulin-dependent protein kinase type II subunit gamma (Homo sapiens) (UniProt Q13555); details: Compound concentration 1000.0 nM
[26] = target: Kappa-type opioid receptor (Rattus norvegicus) (UniProt P34975); test: KAPPA/R Cerep selectivity data (BI); details: Compound concentration 10.0 uM
[27] = target: Histamine H1 receptor (Homo sapiens) (UniProt P35367); test: H1/PYRIL/HS Cerep selectivity data (BI); details: Compound concentration 10.0 uM
[28] = target: Aurora kinase A (Homo sapiens) (UniProt O14965); details: Compound concentration 1000.0 nM
[29] = target: L-type voltage-gated calcium channel (dihydropyridine site), Cav1.2 alpha-1C (Rattus norvegicus, UniProt P22002); test: CA+/DHPSI/R Cerep selectivity data (BI); parameters: mode of action inhibitor; details: rat brain, probe [3H](+)PN200-110, compound concentration 10 uM, read-out: % Ctrl
[30] = target: Beta-2 adrenergic receptor (Homo sapiens) (UniProt P07550); test: BETA2/HUM Cerep selectivity data (BI); details: filed as antagonist, Compound concentration 10.0 uM
[31] = target: T1, 5-hydroxytryptamine receptor 2A; test: 5HT2AH_AGON Cerep selectivity data (BI); details: filed as agonist, Compound concentration 10.0 uM
Autotaxin = Autotaxin (Homo sapiens, UniProt Q13822); test: Biochemical assay: measurement of LPA (human)

## O=C(NC[C@@H]1[C@H]2CN(C(=O)OCc3cc(C(F)(F)F)cc(C(F)(F)F)c3)C[C@@H]12)c1ccc2[nH]nnc2c1 [BI 2545]
[1]
  residual activity: 54%
[2]
  residual activity: 96%
[3]
  residual activity: 107%
[4]
  Ki: 8.68 µM
[5]
  residual activity: 76%
hERG (KCNH2)
  activity at 10 µM: 71% (not active)
[6]
  inhibition: 7.71%
[7]
  residual activity: 92%
[8]
  residual activity: 92%
[9]
  residual activity: 100%
[10]
  residual activity: 39%
[11]
  residual activity: 79%
[12]
  residual activity: 103%
[13]
  residual activity: 97%
[14]
  residual activity: 100%
[15]
  inhibition: 6.75%
[16]
  residual activity: 100%
[17]
  residual activity: 100%
[18]
  residual activity: 82%
[19]
  residual activity: 100%
[20]
  residual activity: 67%
[21]
  residual activity: 100%
[22]
  residual activity: 86%
[23]
  residual activity: 109%
[24]
  residual activity: 97%
[25]
  residual activity: 85%
[26]
  residual activity: 68%
[27]
  residual activity: 101%
[28]
  residual activity: 93%
[29]
  activity at 10 µM: 20% (active)
[30]
  residual activity: 96%
[31]
  residual activity: 45%

## Cc1nccc(COC(=O)N2C[C@@H]3[C@@H](CNC(=O)c4ccc5[nH]nnc5c4)[C@@H]3C2)n1 [BI 3017]
[11]
  residual activity: 100%
[14]
  residual activity: 92%
[15]
  inhibition: -0.15%
Autotaxin
  IC50: 8.9 µM (not active)
[16]
  residual activity: 99%
[19]
  residual activity: 0%
[25]
  residual activity: 100%
[28]
  residual activity: 91%
